Test results reported in patent US12115155B2, “Solid dosage form of a nicotine concentration” (Fertin Pharma A/S, priority 2017, dated 2024).

Details: nicotine concentration increased from 100 microgram/mL to 14,000 microgram/mL

Question: Which “change of permeability of nicotine across the buccal mucosa” value does the source give for `CN1CCCC1c1cccnc1` (stereo not shown) [nicotine] here?
Answer: decrease of about a factor of two
